Experiments:
[1] = target: T1, CofC (Paracoccus denitrificans) (Paracoccus denitrificans, UniProt A1B131); assay: combined CofC/D assay, LC-MS; assay type: biochemical; settings: competitive mixture of 3-PG, 2-PL, PEP (0.5 mM each), 2 mM GTP, 2 mM MgCl2, FO, Mjan-CofD, pH 7.4
T1 construct: gene Pden_1117; N-terminal His6, E. coli
T1 sequence (A1B131 1-216): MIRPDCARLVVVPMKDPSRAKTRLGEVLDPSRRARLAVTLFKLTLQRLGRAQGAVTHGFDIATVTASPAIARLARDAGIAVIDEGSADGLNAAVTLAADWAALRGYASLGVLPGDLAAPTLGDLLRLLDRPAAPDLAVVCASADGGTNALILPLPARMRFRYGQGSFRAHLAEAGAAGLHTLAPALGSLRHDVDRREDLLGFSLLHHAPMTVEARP

[2] = target: T2, CofC (Ca. H. archaeon) (Candidatus Hydrothermarchaeota archaeon, UniProt A0A497JEJ7); assay: combined CofC/D assay, LC-MS; assay type: biochemical; settings: competitive mixture of 3-PG, 2-PL, PEP ([…] each), […] GTP, […] MgCl2, FO, Mjan-CofD, pH […]
T2 construct: N-terminal His6, E. coli; synthetic gene; full organism name only in supplement
T2 sequence (A0A497JEJ7 1-207): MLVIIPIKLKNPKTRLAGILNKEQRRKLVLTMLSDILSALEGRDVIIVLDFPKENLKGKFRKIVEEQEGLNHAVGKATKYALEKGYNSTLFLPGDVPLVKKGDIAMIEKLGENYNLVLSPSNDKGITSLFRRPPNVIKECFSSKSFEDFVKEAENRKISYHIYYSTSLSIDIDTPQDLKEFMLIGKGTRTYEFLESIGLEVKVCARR

[3] = target: T3, CofC (Thermomicrobium roseum) (Thermomicrobium roseum, UniProt B9L4T8); assay: combined CofC/D assay, LC-MS; assay type: biochemical; settings: competitive mixture of 3-PG, 2-PL, PEP (0.5 mM each), 2 mM GTP, 2 mM MgCl2, FO, Mjan-CofD, pH 7.4
T3 construct: gene fbiD; N-terminal His6, E. coli
T3 sequence (B9L4T8 1-200): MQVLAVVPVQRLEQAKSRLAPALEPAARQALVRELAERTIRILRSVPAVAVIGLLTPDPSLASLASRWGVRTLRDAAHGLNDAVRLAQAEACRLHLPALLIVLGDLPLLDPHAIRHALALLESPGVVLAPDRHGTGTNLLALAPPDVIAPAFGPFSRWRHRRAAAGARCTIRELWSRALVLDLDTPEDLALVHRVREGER

[4] = target: T4, Msmeg-FbiD (Mycolicibacterium smegmatis, UniProt A0QUZ4); assay: combined CofC/D assay, LC-MS; assay type: biochemical; settings: competitive mixture of 3-PG, 2-PL, PEP (0.5 mM each), 2 mM GTP, 2 mM MgCl2, FO, Mjan-CofD, pH 7.4
T4 construct: N-terminal His6, full length, E. coli (plasmid pMH10)
T4 sequence (A0QUZ4 whole entry): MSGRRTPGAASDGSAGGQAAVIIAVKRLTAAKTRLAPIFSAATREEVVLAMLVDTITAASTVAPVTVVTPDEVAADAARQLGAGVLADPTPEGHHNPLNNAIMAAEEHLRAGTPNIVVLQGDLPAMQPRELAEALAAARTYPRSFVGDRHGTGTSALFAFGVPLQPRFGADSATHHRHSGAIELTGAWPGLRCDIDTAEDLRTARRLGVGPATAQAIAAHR

[5] = target: T5, CofC (Archaeon GBE54128) (archaeon BMS3Bbin15, UniProt A0A2H6JTR5); assay: combined CofC/D assay, LC-MS; assay type: biochemical; settings: competitive mixture of 3-PG, 2-PL, PEP ([…] each), […] GTP, […] MgCl2, FO, Mjan-CofD, pH […]
T5 construct: N-terminal His6, E. coli; synthetic gene
T5 sequence (A0A2H6JTR5 1-207): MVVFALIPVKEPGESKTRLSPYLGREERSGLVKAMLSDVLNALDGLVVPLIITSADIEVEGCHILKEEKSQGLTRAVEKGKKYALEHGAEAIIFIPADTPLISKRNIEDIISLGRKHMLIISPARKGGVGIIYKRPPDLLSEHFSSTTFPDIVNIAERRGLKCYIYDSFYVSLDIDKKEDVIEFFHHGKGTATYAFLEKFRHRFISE

[6] = target: T6, CofC (Ca. E. factor) (Candidatus Entotheonella factor, UniProt W4LIL2); assay: combined CofC/D assay, LC-MS; assay type: biochemical; settings: competitive mixture of 3-PG, 2-PL, PEP (0.5 mM each), 2 mM GTP, 2 mM MgCl2, FO, Mjan-CofD, pH 7.4
T6 construct: gene ETSY1_21445; N-terminal His6, E. coli
T6 sequence (W4LIL2 entry or part of it): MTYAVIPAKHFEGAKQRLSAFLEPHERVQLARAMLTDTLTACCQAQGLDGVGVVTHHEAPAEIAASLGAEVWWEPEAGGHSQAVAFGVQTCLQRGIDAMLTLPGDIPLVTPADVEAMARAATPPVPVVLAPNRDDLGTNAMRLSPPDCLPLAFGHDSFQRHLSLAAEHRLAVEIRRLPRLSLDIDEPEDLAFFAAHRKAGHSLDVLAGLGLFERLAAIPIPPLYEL

[7] = target: T7, CofC (Oligotropha carboxidovorans) (Afipia carboxidovorans, UniProt B6JBS5); assay: combined CofC/D assay, LC-MS; assay type: biochemical; settings: competitive mixture of 3-PG, 2-PL, PEP (0.5 mM each), 2 mM GTP, 2 mM MgCl2, FO, Mjan-CofD, pH 7.4
T7 construct: gene fbiD; N-terminal His6, E. coli
T7 sequence (B6JBS5 1-237): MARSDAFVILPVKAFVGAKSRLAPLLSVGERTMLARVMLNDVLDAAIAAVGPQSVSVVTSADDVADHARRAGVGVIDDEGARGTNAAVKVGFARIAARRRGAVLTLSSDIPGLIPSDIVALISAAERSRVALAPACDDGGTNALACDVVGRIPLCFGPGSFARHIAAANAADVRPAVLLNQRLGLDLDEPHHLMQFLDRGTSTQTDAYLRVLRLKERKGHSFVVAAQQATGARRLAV

[8] = target: T8, Mmaz-CofC (Methanosarcina mazei, UniProt Q8PU52); assay: combined CofC/D assay, LC-MS; assay type: biochemical; settings: competitive mixture of 3-PG, 2-PL, PEP (0.5 mM each), 2 mM GTP, 2 mM MgCl2, FO, Mjan-CofD, pH 7.4
T8 construct: N-terminal His6, E. coli
T8 sequence (Q8PU52 1-208): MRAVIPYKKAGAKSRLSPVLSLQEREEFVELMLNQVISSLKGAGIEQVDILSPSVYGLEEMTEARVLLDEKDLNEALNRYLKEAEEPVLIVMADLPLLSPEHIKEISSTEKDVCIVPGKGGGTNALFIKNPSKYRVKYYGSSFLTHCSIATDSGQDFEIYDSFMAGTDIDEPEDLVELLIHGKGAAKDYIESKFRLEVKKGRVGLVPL

[9] = target: T9, Mrhiz-CofC (Mycetohabitans rhizoxinica, UniProt E5ASS2); assay: combined CofC/D assay, LC-MS; assay type: biochemical; settings: competitive mixture of 3-PG, 2-PL, PEP (0.5 mM each), 2 mM GTP, 2 mM MgCl2, FO, cognate CofD, pH 7.4
T9 construct: N-terminal His6, full length, E. coli (plasmid pFS03)
T9 sequence (E5ASS2 6-221): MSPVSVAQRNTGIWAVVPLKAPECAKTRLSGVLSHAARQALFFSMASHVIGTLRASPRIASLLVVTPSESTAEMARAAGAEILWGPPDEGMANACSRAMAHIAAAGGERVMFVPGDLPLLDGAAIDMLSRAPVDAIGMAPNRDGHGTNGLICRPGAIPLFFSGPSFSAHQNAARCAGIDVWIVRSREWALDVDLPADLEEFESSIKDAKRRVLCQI

[10] = target: T10, Mjan-CofD (Methanocaldococcus jannaschii, UniProt Q58653); assay: combined CofC/D assay, LC-MS; assay type: biochemical; settings: coupled to CofC homologs forming LPPG, EPPG or GPPG; 2 mM GTP, 2 mM MgCl2, pH 7.4
T10 construct: N-terminal His6, E. coli
T10 sequence (Q58653 whole entry): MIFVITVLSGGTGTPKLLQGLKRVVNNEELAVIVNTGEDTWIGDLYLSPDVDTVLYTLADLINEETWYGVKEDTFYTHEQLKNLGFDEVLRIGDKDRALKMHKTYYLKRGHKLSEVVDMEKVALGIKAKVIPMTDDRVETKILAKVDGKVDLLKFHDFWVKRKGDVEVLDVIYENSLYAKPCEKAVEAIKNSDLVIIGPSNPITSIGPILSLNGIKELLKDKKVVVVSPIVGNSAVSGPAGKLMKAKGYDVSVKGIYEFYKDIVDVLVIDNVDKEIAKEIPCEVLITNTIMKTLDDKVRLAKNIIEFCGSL

[11] = target: T11, CofC (nano-DSF); assay: nano-DSF; assay type: binding; settings: GPPG co-purified with the enzyme may be present
T11 construct: N-terminal His6, E. coli; Results place the test beside MycB3-CofC, Discussion names M. rhizoxinica

C[C@H](OP(=O)(O)O)C(=O)O [2-PL]
combined CofC/D assay, LC-MS [1]: For all CofC-related enzymes analyzed, 2-PL was used most efficiently
combined CofC/D assay, LC-MS [2]: 2-PL was the best substrate of all three enzymes
combined CofC/D assay, LC-MS [3]: For all CofC-related enzymes analyzed, 2-PL was used most efficiently
combined CofC/D assay, LC-MS [4]: the M. smegmatis FbiD tested in this study preferred 2-PL as substrate
combined CofC/D assay, LC-MS [5]: 2-PL was the best substrate of all three enzymes
combined CofC/D assay, LC-MS [6]: For all CofC-related enzymes analyzed, 2-PL was used most efficiently
combined CofC/D assay, LC-MS [7]: For all CofC-related enzymes analyzed, 2-PL was used most efficiently
combined CofC/D assay, LC-MS [8]: For all CofC-related enzymes analyzed, 2-PL was used most efficiently

O=C(O)[C@H](O)COP(=O)(O)O [3-PG]
combined CofC/D assay, LC-MS [9]: combined with their cognate CofD, the apparent substrate specificity shifted almost completely toward 3-PG
combined CofC/D assay, LC-MS [2]: all of those enzymes accepted 3-PG as substrates
combined CofC/D assay, LC-MS [5]: all of those enzymes accepted 3-PG as substrates

O=c1nc2n(C[C@H](O)[C@H](O)[C@H](O)CO)c3cc(O)ccc3cc-2c(=O)[nH]1 [FO, 7,8-didemethyl-8-hydroxy-5-deazariboflavin]
combined CofC/D assay, LC-MS [10]: Distinct derivatives of F420-0 were produced via biochemical reaction of purified CofC and CofD

Nc1nc2c(ncn2[C@@H]2O[C@H](COP(=O)(O)OP(=O)(O)OP(=O)(O)O)[C@@H](O)[C@H]2O)c(=O)[nH]1 [GTP]
Kd [11]: < 20 µM
